The text below walks through data of patent US12606534B2, “Method for the treatment of keratin materials using acid, ester or amide C-glycoside derivatives, and cosmetic composition containing same” (L'OREAL, priority 2016, dated 2026).

The assay has as its system normal human melanocytes. Kind of assay: Depigmenting activity (reduction of melanin production) in normal human melanocytes in vitro. The class given is cell-based. The conditions noted are these: compound at 100 μM, 72 hours incubation, optical density (amount of melanin). Here is the method: The depigmenting activity (reduction of melanin production) of compounds of formula (I) was measured by assay in normal human melanocytes in vitro as follows.
First, normal human melanocytes are cultured and distributed in a multiple-well plate.
After 24 hours, the culture medium was replaced with a medium containing the compounds of formula (I) to be evaluated. The cells were incubated for 72 hours before measuring the final optical density, which measures the amount of melanin produced by the melanocytes. The measurement was calibrated and the compounds were tested at 100 μM.
Various test runs were performed and the results are collated in the following tables.

On to `CC(=O)OC[C@H]1OC(CC(=O)O)[C@H](OC(C)=O)[C@@H](OC(C)=O)[C@@H]1OC(C)=O` (stereo partly drawn) [Compound 1], for which the “% depigmentation at 100 μM, Run 3” value (Run 3) was found to be 24%.

`C[C@@H]1OC(CC(=O)N(C)C)[C@H](O)[C@H](O)[C@H]1O` (stereo partly drawn) [Compound 4]: the “% depigmentation at 100 μM, Run 1” value (Run 1) was found to be 15%.

`O=C(O)C[C@@H]1O[C@H](CO)[C@@H](O)[C@H](O)[C@H]1O` [Compound 2]: the “% depigmentation at 100 μM, Run 2” value (Run 2) turned out to be 29%.
